In patent publication US20240049707A1, “PESTICIDE COMPOSITIONS OF LICOCHALCONE C” (METABOLIC INSIGHTS LTD., priority 2020, published 2024):

How the values were obtained:
Fusarium oxysporum = experiment: Microplate based screening of bioactivity against Fusarium oxysporum; format: cell-based; conditions: 10 μl of 250 ppm solution + 40 μl inoculum, activity grade x repeats x days of activity/252 x 100
Description: Diluted in DMSO Licochalcone C was added to microplate wells and mixed with freshly prepared spore suspension and growth of the fungus, starting from frozen spores, was monitored using the plate reader and by visual inspection. […]
Microplate Preparation for Licochalcone C Bioactivity Experiment: • 1) Take a stock solution of purified 1% Licochalcone C in DMSO from the −20 freezer and thaw it on the bench. • 2) Take 1 μl of stock solution of 1% Licochalcone C and dilute up to 250 ppm with 39 μl of water. • 3) Take 10 μl of the diluted (250 ppm) Licochalcone C solution into the wells of the microplate using a multi-pipette. • 4) Add 40 μl of vigorously mixed spore suspension inoculum to the wells of the microplate using a multi-pipette. • 5) Seal the plate with transparent sealer • 6) Shake the plate for 10 min at 2000 RPM to mix the materials with the hyphae suspension • 7) Centrifugate the plate at 1000RCF for is and stop to collect the liquid at the bottom of the plate • 8) Keep the microplate on the bench until it is read by the plate reader • 9) Read the plate using the plate reader • 10) Collect the plates on the bench • 11) Insert collected plates to a plastic box with cloth cover and put the box in the incubator at 25° C. […]

Pseudomonas syringae = experiment: Microplate based screening of bioactivity against Pseudomonas syringae; format: cell-based; conditions: 10 μl of 250 ppm solution + 40 μl inoculum, activity grade x repeats x days of activity/168 x 100
Description: Pseudomonas Suspension Preparation: • 1) Grow Pseudomonas on LBA plates at 28° C. for 2 days to get a single colony • 2) Transfer a single colony using a sterile toothpick into a 50 ml sterile tube containing 5 ml LB and grow for 24 at 28° C. and 150 RPM • 3) Chill the tube in the fridge for 1 h • 4) Add 7.5 ml of fridge cold, sterile, glycerol solution to the tube—to get 60% glycerol solution • 5) Mix well but gently to get perfect mixing—use vortex at 1000 RPM • 6) Aliquot 100 μl of bacteria suspension in 60% glycerol into 1.5 ml tubes—each aliquot should be enough for screening of 10 microplates • 7) Store the bacteria suspension in 60% glycerol at −20° C.
Pseudomonas Suspension Preparation for Bioactivity Screening Experiment: • 1) Take 1.5 ml tube with 100 μl frozen Pseudomonas suspension from the freezer and thaw it on ice • 2) Prepare in the hood 50 ml tubes with 40 ml fridge cold LB • 3) Mix 40 μl of bacteria suspension with 40 ml fridge cold LB in a 50 ml tube. This amount is enough for activity screening of 10 microplates • 4) Use this suspension for bioactivity screening experiments […]

SMILES: COc1c(/C=C/C(=O)c2ccc(O)cc2)ccc(O)c1CC=C(C)C [Licochalcone C, (E)-3-[4-hydroxy-2-methoxy-3-(3-methylbut-2-enyl)phenyl]-1-(4-hydroxyphenyl)prop-2-en-1-one]
- Relative Activity value (%) (Fusarium oxysporum): 25%
- Relative Activity value (%) (Pseudomonas syringae): 50%
